{
  "source": "patent US20210115398A1",
  "about": "“CORNEAL TISSUE CULTURE SYSTEM AND CORNEAL TISSUE CULTURE METHOD THEREOF” (Chang Gung Memorial Hospital, Linkou, priority 2019, published 2021)",
  "key": {"[1]": {"system": "rabbit corneal endothelial cells", "experiment": "Dose-response test: rabbit corneal endothelial cells co-cultivated with rabbit corneal stroma cells", "type": "cell-based", "details": "20 μmol/L LPA, 5 days of cultivation, co-culture with corneal stroma cells", "protocol": "The tissue culture media (DMEM, 10% FBS, 25 μg/mL gentamycin) added with 0 μmol/L, 10 μmol/L, 20 μmol/L, and 100 μmol/L of LPA were used for co-cultivating the rabbit corneal endothelial cells and the rabbit corneal stroma cells at 37° C. with 5% CO2. After 5 days of cultivation, the cell number of the rabbit corneal endothelial cells of each groups were calculated and shown in FIG. 6. […] According to the result, the tissue culture media used for the following experiments was added with 20 μmol/L LPA."}, "[2]": {"system": "corneal endothelial cells of rabbit corneal tissue", "experiment": "Evaluation of the corneal endothelial cell density of the corneal tissue (tissue culture dish 100)", "type": "cell-based", "details": "20 μmol/L LPA", "protocol": "The rabbit corneal tissues were placed individually in the tissue culture dishes 100, cultivated with the tissue culture media (DMEM basal medium, 10% FBS, and 25 μg/mL gentamycin) added with 20 μmol/L LPA (Example) or without LPA (Comparative example), and incubated at 37° C. with 5% CO2, wherein a portion of the corneal epithelium layer of the rabbit corneal tissues faced toward the first direction A and contacted with air and the corneal endothelium layer contacted with the tissue culture media. After 7 days of cultivation, the cell morphology and the analysis of cell density of the corneal endothelium layer were shown in FIG. 7 and FIG. 8. The density of the corneal endothelial cells of the example on day 0 was 3766.7±332.9 cells/mm^2, 4572.2±179.8 cells/mm^2 on day 5, and 4950.0±304.1 cells/mm^2 on day 7. […] According to the result, the corneal endothelial cell density may be increased in the LPA-treated example."}, "[3]": {"system": "corneal endothelial cells of rabbit corneal tissue", "experiment": "Morphology of the corneal endothelial cells of the corneal tissue (ZO-1 immunostaining)", "type": "cell-based", "details": "10 μmol/L LPA, 7 days", "protocol": "(§1) The rabbit corneal tissues were placed individually in the tissue culture dishes 100, cultivated with the tissue culture media (DMEM basal medium, 10% FBS, and 25 μg/mL gentamycin) added with 10 μmol/L LPA (Example) or without LPA (Comparative example), and incubated at 37° C. with 5% CO2 for 7 days, wherein a portion of the corneal epithelium layer of the rabbit corneal tissues faced toward the first direction A and contacted with air and the corneal endothelium layer contacted with the tissue culture media. The corneal endothelium layer was immunostained for ZO-1 on day 0 and day 7 for observing the cell morphology of the corneal endothelial cells of the corneal tissue."}, "[4]": {"system": "corneal endothelial cells of rabbit corneal tissue", "experiment": "Evaluation of the cell proliferation of the corneal tissue (BrdU labeling)", "type": "cell-based", "details": "10 μmol/L LPA, 7 days, BrdU from day 5 to day 7", "protocol": "as §1, with “Bromodeoxyuridine (BrdU)” for “The corneal endothelium layer”, “added to the culture media from” for “immunostained for ZO-1 on”, “5 to” for “0 and”, “proliferation” for “cell morphology”, “cells.” for “corneal endothelial cells of the corneal tissue.”"}, "[5]": {"system": "damaged rabbit corneal endothelium layer", "experiment": "Healing effect of the damaged corneal endothelium layer of the corneal tissue (Alizarin Red S staining)", "type": "cell-based", "details": "20 μmol/L LPA", "protocol": "A polyvinylidene fluoride (PVDF) filter membrane with regularly punched-out holes was used to cover the rabbit corneal endothelium layer; exposing the inner damage zone (I) scraped with Cellulose Eye Spears. The rest area of the corneal endothelium layer was defined as the outer damage zone (O). The damaged corneal tissues were placed individually in the tissue culture dishes 100, cultivated with the tissue culture media (DMEM basal medium, 10% FBS, and 25 μg/mL gentamycin) added with 20 μmol/L LPA (Example) or without LPA (Comparative example), and incubated at 37° C. with 5% CO2, wherein a portion of the corneal epithelium layer of the rabbit corneal tissues faced toward the first direction A and contacted with air and the corneal endothelium layer contacted with the tissue culture media. The inner damage zone (I) and the outer damage zone (O) of the corneal tissues on day 0 and day 2 were observed using Alizarin Red S staining. The morphology of the corneal tissue stained by Alizarin Red S was shown in FIG. 12, wherein the stained area (brown color) represented the corneal […] of the inner damage zone (I) and the unstained area represented the corneal endothelial cells of the outer zone (O). […] Refer to FIG. 14, the corneal endothelial cell density of the inner damage zone of the LPA-treated example was 1358±8 0.4 cells/mm^2, and the circularity and aspect ratio of the corneal endothelial cells were 0.68±0.15 and 2.39±1.14. However the corneal endothelial cell density of the inner damage zone of the comparative example was 900.0±198.4 cells/mm^2, and the circularity and aspect ratio of the corneal endothelial cells were 0.43±0.14 and 4.91±2.43. According to the results, the addition of LPA can stimulate cell proliferation of the damaged corneal tissue. Also, LPA enhanced the repopulation of the neighbor corneal endothelial cells to the damage zones."}, "[6]": {"system": "corneal endothelial cells of transplanted damaged corneal tissue", "experiment": "Evaluation of corneal tissue transplantation into rabbit eyes", "type": "in vivo", "details": "damaged cornea cultivated 2 days with 20 μmol/L LPA, day 6", "protocol": "The damaged corneal tissues were prepared using the PVDF filter membrane described above (please refer to the above paragraph). Then, those damaged corneal tissues were placed individually in the tissue culture dishes 100, cultivated with the tissue culture media (DMEM basal medium, 10% FBS, and 25 μg/mL gentamycin) added with 20 μmol/L LPA (Example) or without LPA (Comparative example 1), and incubated at 37° C. with 5% CO2, wherein a portion of the corneal epithelium layer of the rabbit corneal tissues faced toward the first direction A and contacted with air and the corneal endothelium layer contacted with the tissue culture media. After 2 days of cultivation, the damaged corneal tissues were transplanted into rabbit eyes. In addition, total corneal endothelium scrapping and undamaged mock donor corneas were also prepared to serve as comparative examples 2 and 3. External eye photography was taken in the rabbits after transplantation on day 0 and day 6, respectively. Following sacrifice on day 6, the corneal endothelial cells were stained with Alizarin Red S for observations of the cell morphology of the corneal endothelial cells in all density zones (A) (average of high-density and low-density zones) and cell shape in low-density zone (L) were examined. […] Please refer to FIG. 16 showing the analysis of the corneal endothelial cell density, circularity, and aspect ratio. The corneal endothelial cell density of the example was 2200.0±90.1 cells/mm^2, and the circularity and the aspect ratio of the corneal endothelial cells of example 1 were 0.84±0.05 and 1.35±0.02. However, in comparative example 1, the cell density was 1700.0±288.3 cells/mm^2, the circularity was 0.69±0.12, and the aspect ratio was 2.12±1.13."}, "[7]": {"system": "human corneal stromal cells", "experiment": "Gene expression analysis using cDNA microarray", "type": "cell-based", "details": "20 μmol/L LPA, 2 days", "protocol": "(§2) The gene expression profiling and the cytokine of the human corneal stromal cells were analyzed using cDNA microarray chip and Cytokine Array G5 chip. The human corneal stromal cells were cultured with culture media (DMEM basal medium, 10% FBS, and 25 μg/mL gentamycin) added with 20 μmol/L LPA (served as an Example) or without adding LPA (Comparative example) and incubated at 37° C. with 5% CO2. After 2 days of cultivation, the total RNA from the human corneal stromal cells in example and comparative example were isolated with the TRIzol reagent and purified using RNeasy column. After amplification and labeling the total RNA samples, GeneChip hybridization was performed and a GeneArray G7 scanner was used to scan the results. The culture media from the example and the comparative example were collected and the cytokines were analyzed using a human cytokine antibody array. […] It was confirmed that LPA stimulated the proliferation of the endothelial cells of the corneal tissue via two pathways including directly affecting the endothelial cells and stimulating the secretion of CCL20 and IL-1β from the […]."}, "[8]": {"system": "human corneal stromal cells", "experiment": "Cytokine analysis of culture media using human cytokine antibody array", "type": "cell-based", "details": "20 μmol/L LPA, 2 days", "protocol": "as §2"}, "[9]": {"system": "corneal endothelial cells of human corneal residual tissue", "experiment": "Proliferation and morphology of corneal endothelial cells of human corneal residual tissue (ZO-1 and Ki-67 immunostaining)", "type": "cell-based", "details": "20 μmol/L LPA, Day 7, tissue immersed", "protocol": "The cell morphology, cell density, and cell proliferation of the present evaluation were performed through immunostaining.\nOne-third of the human corneal residual tissue samples were used for immunostaining for ZO-1 directly (Day 0), while the remaining two-thirds were immersed and placed endothelial side up in the tissue culture media (DMEM basal medium, 10% FBS, and 25 μg/mL gentamycin) added with 20 μmol/L LPA (served as an Example) or without adding LPA (Comparative example) and incubated at 37° C. with 5% CO2. 7 days later, the tissues were cut into halves and subjected to immunostaining for ZO-1 and Ki-67 to evaluate the effects of LPA treatment on corneal endothelial cell density and cell proliferation. […] The corneal endothelial cell density of the LPA-treated example and the comparative example were 2848.8 cells/mm^2±331.7 cells/mm^2 and 2004.7 cells/mm^2±220.2 cells/mm^2."}},
  "data": [
    {"substance": "lysophosphatidic acid [LPA]", "values": [
      {"measurement": "corneal endothelial cell proliferation (cell number)", "setting": "[1]", "result": "significantly stimulated corneal endothelial cell proliferation"},
      {"measurement": "density of the corneal endothelial cells", "setting": "[2]; day 0", "result": "3766.7±332.9", "unit": "cells/mm^2"},
      {"measurement": "density of the corneal endothelial cells", "setting": "[2]; day 5", "result": "4572.2±179.8", "unit": "cells/mm^2"},
      {"measurement": "density of the corneal endothelial cells", "setting": "[2]; day 7", "result": "4950.0±304.1", "unit": "cells/mm^2"},
      {"measurement": "morphology of the corneal endothelial cells (ZO-1)", "setting": "[3]", "result": "not altered"},
      {"measurement": "BrdU labeling cells", "setting": "[4]", "result": "35.2%±16.1%"},
      {"measurement": "aspect ratio of the corneal endothelial cells", "setting": "[5]; day 2, inner damage zone", "result": "2.39±1.14"},
      {"measurement": "circularity of the corneal endothelial cells", "setting": "[5]; day 2, inner damage zone", "result": "0.68±0.15"},
      {"measurement": "repopulation of the inner damage zone (I)", "setting": "[5]; two days after tissue cultivation", "result": "repopulated by neighbor corneal endothelial cells"},
      {"measurement": "aspect ratio of the corneal endothelial cells", "setting": "[6]", "result": "1.35±0.02"},
      {"measurement": "circularity of the corneal endothelial cells", "setting": "[6]", "result": "0.84±0.05"},
      {"measurement": "corneal endothelial cell density", "setting": "[6]", "result": "2200.0±90.1", "unit": "cells/mm^2"},
      {"measurement": "transparency of the transplanted corneal tissue", "setting": "[6]", "result": "remained transparent"},
      {"measurement": "Gene expression in stromal cells: 1L1RN (Interleukin 1 receptor antagonist)", "setting": "[7]", "result": 17.39, "unit": "fold change"},
      {"measurement": "Gene expression in stromal cells: 1L7R (Interleukin 7 receptor)", "setting": "[7]", "result": 15.03, "unit": "fold change"},
      {"measurement": "Gene expression in stromal cells: CCL5", "setting": "[7]", "result": 17.63, "unit": "fold change"},
      {"measurement": "Gene expression in stromal cells: CCL7", "setting": "[7]", "result": 11.39, "unit": "fold change"},
      {"measurement": "Gene expression in stromal cells: CCL8", "setting": "[7]", "result": 15.89, "unit": "fold change"},
      {"measurement": "Gene expression in stromal cells: CCL20", "setting": "[7]", "result": 625.99, "unit": "fold change"},
      {"measurement": "Gene expression in stromal cells: CSF3", "setting": "[7]", "result": 85.04, "unit": "fold change"},
      {"measurement": "Gene expression in stromal cells: CXCL3", "setting": "[7]", "result": 11.31, "unit": "fold change"},
      {"measurement": "Gene expression in stromal cells: CXCL5", "setting": "[7]", "result": 22.32, "unit": "fold change"},
      {"measurement": "Gene expression in stromal cells: CXCL10", "setting": "[7]", "result": 20.97, "unit": "fold change"},
      {"measurement": "Gene expression in stromal cells: EPGN", "setting": "[7]", "result": 10.85, "unit": "fold change"},
      {"measurement": "Gene expression in stromal cells: ESM1", "setting": "[7]", "result": 20.11, "unit": "fold change"},
      {"measurement": "Gene expression in stromal cells: IL1A (Interleukin 1 alpha)", "setting": "[7]", "result": 58.49, "unit": "fold change"},
      {"measurement": "Gene expression in stromal cells: IL1B", "setting": "[7]", "result": 572.05, "unit": "fold change"},
      {"measurement": "Gene expression in stromal cells: INHBA", "setting": "[7]", "result": 20.97, "unit": "fold change"},
      {"measurement": "Gene expression in stromal cells: OLR1", "setting": "[7]", "result": 24.25, "unit": "fold change"},
      {"measurement": "Cytokine content in media: CCL20", "setting": "[8]", "result": 3.26, "unit": "fold change"},
      {"measurement": "Cytokine content in media: CSF3", "setting": "[8]", "result": 0.85, "unit": "fold change"},
      {"measurement": "Cytokine content in media: IL1A", "setting": "[8]", "result": 0.80, "unit": "fold change"},
      {"measurement": "Cytokine content in media: IL1B", "setting": "[8]", "result": 1.73, "unit": "fold change"},
      {"measurement": "Ki-67-positive cells", "setting": "[9]", "result": "11.86%±2.80%"},
      {"measurement": "corneal endothelial cell density", "setting": "[9]", "result": 2848.8, "unit": "cells/mm^2"},
      {"measurement": "morphology of corneal endothelial cells (ZO-1)", "setting": "[9]", "result": "not altered"}
    ]}
  ]
}
